According to patent US20100317690A1, “TREATMENT OF PROTEIN FOLDING DISORDERS” (SUMMIT CORPORATION PLC, priority 2007, published 2010):

Target: T1, Jack bean α-D-mannosidase (Canavalia ensiformis, UniProt C0HJB3)
T1 construct: purchased Sigma M7257
T1 sequence (C0HJB3 1-981): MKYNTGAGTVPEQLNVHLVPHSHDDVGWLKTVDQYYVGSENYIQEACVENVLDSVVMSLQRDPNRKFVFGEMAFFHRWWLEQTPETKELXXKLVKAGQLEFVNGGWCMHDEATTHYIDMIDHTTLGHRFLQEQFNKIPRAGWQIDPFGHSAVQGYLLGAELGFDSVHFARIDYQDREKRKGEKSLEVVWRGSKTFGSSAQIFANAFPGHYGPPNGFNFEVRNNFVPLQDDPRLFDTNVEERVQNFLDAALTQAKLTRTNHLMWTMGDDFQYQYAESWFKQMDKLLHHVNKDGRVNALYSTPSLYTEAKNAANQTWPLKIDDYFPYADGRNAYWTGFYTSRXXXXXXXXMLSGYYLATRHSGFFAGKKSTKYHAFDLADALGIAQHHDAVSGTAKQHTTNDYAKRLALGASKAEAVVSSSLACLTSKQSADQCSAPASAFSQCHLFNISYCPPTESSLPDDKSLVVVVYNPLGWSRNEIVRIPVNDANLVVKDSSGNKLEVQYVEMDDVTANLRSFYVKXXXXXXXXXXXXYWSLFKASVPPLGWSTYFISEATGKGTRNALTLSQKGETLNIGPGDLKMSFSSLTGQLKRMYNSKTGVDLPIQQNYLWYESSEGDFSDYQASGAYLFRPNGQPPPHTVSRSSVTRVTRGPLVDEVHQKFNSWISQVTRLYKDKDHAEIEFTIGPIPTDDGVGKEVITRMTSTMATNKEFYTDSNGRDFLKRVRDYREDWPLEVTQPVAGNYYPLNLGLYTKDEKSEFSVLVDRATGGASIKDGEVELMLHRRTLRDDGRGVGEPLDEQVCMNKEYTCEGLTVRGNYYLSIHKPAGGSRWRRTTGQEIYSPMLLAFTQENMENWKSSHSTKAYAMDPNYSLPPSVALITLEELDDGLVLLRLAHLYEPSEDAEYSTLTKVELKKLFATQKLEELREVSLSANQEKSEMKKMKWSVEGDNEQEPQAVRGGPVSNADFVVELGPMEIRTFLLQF
Test: Jack bean α-D-mannosidase activity assay (PNP-α-D-mannopyranoside substrate)
Type: biochemical
Protocol: Fresh solutions had been prepared a day or so earlier of 0.2M Mcllvane buffer at pH 4.5 and 5 mM PNP-α-D-mannopyranoside (Sigma, N2127) in pH 4.5 buffer. Also prepared was a dilution of Jack bean α-D-mannosidase enzyme (Sigma, M7257, 22 Units/mg, 6.2 mg/ml.) at 0.6 Units/ml in pH 4.5 buffer.
The incubation mixture consisted of 10 μl enzyme solution, 10 μl of 1 mg/ml aqueous inhibitor solution and 50 μl of 5 mM substrate made up in buffer at the optimum pH for the enzyme. The reactions were stopped by addition of 70 μl 0.4M glycine (pH 10.4) during the exponential phase of the reaction, which had been determined at the beginning using uninhibited assays in which water replaced inhibitor. Final absorbances were read at 405 nm using a Versamax microplate reader (Molecular Devices). Assays were carried out in triplicate, and the values given are means of the three replicates per assay. Results were expressed as a percentage of uninhibited assays in which water replaced inhibitor.

## O[C@H]1[C@H]2[C@H](O)CCCN2C[C@H]1O [swainsonine]
Activity promoted by imino sugars with a mannose configuration
  inhibition of the promoted activity: total inhibition
Any concentration tested
  promotion of the mannosidase: does not cause promotion
Swainsonine alone, or mixed with an equal concentration of the selected stimulating compound
  inhibition: 100%
